In patent US20220347309A1, “PYRROLOBENZODIAZEPINE RESISTANCE” (ADC THERAPEUTICS SA, priority 2018, published 2022):

How the values were obtained:
NCI-N87 wt cells [1] = assay: MTS in vitro cytotoxicity, 144 h continuous exposure; assay type: cell-based, human; conditions: NCI-N87 wt, 144 h continuous exposure, mean; read-out: IC50
Experimental: (§9) To generate a resistant population to either ADCT-502 or SG3199, human gastric cancer NCI-N87 cells (expressing HER2) were incubated with an approximate IC50 dose of the drug for 144 hours. The cells were then washed and returned to fresh medium until normal cell growth was recovered. This process was repeated until a measurable and stable loss in cytotoxic efficacy was established using the MTS assay.
(§10) To measure the in vitro cytotoxicity with the MTS assay, cells were incubated with a 10-fold dilution range of ADCT-502 or SG3199, and incubated with continuous exposure for 144 hours (at least three cell doubling times under normal cell culture conditions). After incubation the CellTiter 960 AQueous One Solution Cell Proliferation Assay (MTS) was used to measure growth inhibition, by adding 20 μl reagent to the cells and incubating for 3-4 hours, then reading the absorbance at 492 nm. Mean % growth of the ADC or PBD treated cells was calculated relative to an untreated control.
(§11) To measure the cross-resistance of the NCI-N87 ADCR cells to the SG3199 PBD warhead, and the PBDR cells to ADCT-502, the in vitro cytotoxicity assay was carried out as described above, treating the cells with the opposite drug molecule to the one with which they were generated.

Karpas ADCr cells = assay: Single dose 2-hour exposure cytotoxicity (MTS); assay type: cell-based, human; conditions: 130 pM ADCT-301 or 280 μM SG3199 (legend: pM) for 2 hours, then 96 hours
Experimental: (§1) To investigate growth inhibition under the same conditions under which DNA ICL formation was measured, Karpas-ADCR cells were treated with 130 pM ADCT-301, and Karpas-PBDR cells treated with 280 pM SG3199 for 2 hours, then washed and incubated for 96 hours under normal cell culture conditions. The MTS assay and calculation of % growth compared to the untreated control was carried out as previously described.
(§2) To investigate whether the cross-resistance in ICL formation observed in the Karpas resistant cell lines also correlates with growth inhibition at this dose, ADCR cells were treated with 280 μM SG3199, and PBDR cells treated with 130 μM ADCT-301 for 2 hours, then washed and incubated for 96 hours under normal cell culture conditions. The MTS assay and calculation of % growth compared to the untreated control was carried out as previously described. The results are shown in FIG. 22 for the ADCR line and FIG. 23 for the PBDR line.

Karpas PBDr cells = assay: Single dose 2-hour exposure cytotoxicity (MTS); assay type: cell-based, human; conditions: 130 μM ADCT-301 (legend: pM) or 280 pM SG3199 for 2 hours, then 96 hours
Experimental: as §1, §2

NCI-N87 ADCr cells [2] = assay: Single dose 2-hour exposure cytotoxicity (MTS); assay type: cell-based, human; conditions: 1 nM ADCT-502 or 1 nM SG3199 for 2 hours, then 144 hours
Experimental: as §1, with “NCI-N87-ADCR” for “Karpas-ADCR”, “1 nM ADCT-502,” for “130 pM ADCT-301,”, “PBDR” for “Karpas-PBDR”, “1.7 nM” for “280 pM”, “144” for “96”
as §2, with “NCI-N87” for “Karpas”, “1 nM” for “280 μM”, “1.7 nM ADCT-502” for “130 μM ADCT-301”, “144” for “96”, “24” for “22”, “25” for “23”

NCI-N87 PBDr cells [3] = assay: Single dose 2-hour exposure cytotoxicity (MTS); assay type: cell-based, human; conditions: 1.7 nM ADCT-502 or 1.7 nM SG3199 for 2 hours, then 144 hours
Experimental: as §1, with “NCI-N87-ADCR” for “Karpas-ADCR”, “1 nM ADCT-502,” for “130 pM ADCT-301,”, “PBDR” for “Karpas-PBDR”, “1.7 nM” for “280 pM”, “144” for “96”
as §2, with “NCI-N87” for “Karpas”, “1 nM” for “280 μM”, “1.7 nM ADCT-502” for “130 μM ADCT-301”, “144” for “96”, “24” for “22”, “25” for “23”

Karpas-299 wt cells = assay: Single dose 2-hour exposure cytotoxicity (MTS); assay type: cell-based, human; conditions: 130 pM ADCT-301 or 280 pM SG3199 for 2 hours, then 96 hours, vs untreated control
NCI-N87 ADCr cells [4] = assay: DNA interstrand cross-linking, comet assay; assay type: cell-based, human; conditions: 1 nM ADCT-502 or 1.7 nM SG3199 for 2 hours, then 24 hours
Experimental: (§3) The formation of inter-strand cross-links (ICLs) by either ADCT-502 or SG3199 was measured using the modification of the single cell gel electrophoresis (comet) assay. Cells were treated with 1 nM ADCT-502 or 1.7 nM SG3199 for 2 hours, then washed and incubated for 24 hours under normal cell culture conditions. All cells were irradiated with 18 Gy (5 Gy/min for 3.6 min). ICL formation was quantitated by measuring Olive tail moment (OTM) using the Komet 4 software, and the percentage reduction in OTM compared to an untreated irradiated control.
(§4) The results are shown in FIG. 20 for the ADCR line and FIG. 21 for the PBDR line.

NCI-N87 wt cells [5] = assay: DNA interstrand cross-linking, comet assay; assay type: cell-based, human; conditions: 1 nM ADCT-502 or 1.7 nM SG3199 for 2 hours, then 24 hours
Experimental: as §3, §4

NCI-N87 PBDr cells [6] = assay: DNA interstrand cross-linking, comet assay; assay type: cell-based, human; conditions: 1 nM ADCT-502 or 1.7 nM SG3199 for 2 hours, then 24 hours
Experimental: as §3, §4

NCI-N87 wt cells [7] = assay: Single dose 2-hour exposure cytotoxicity (MTS); assay type: cell-based, human; conditions: single dose for 2 hours, then 144 hours, vs untreated control
[8] = system: human tumor cell lines expressing MDR1; conditions: cited from earlier work
[9] = system: NCI-N87 PBDr cells (SG3199 acquired resistant); assay: MTS in vitro cytotoxicity, 144 h continuous exposure; assay type: cell-based, human
Experimental: as §9, §10, §11

[10] = system: Karpas ADCr cells (ADCT-301 acquired resistant Karpas-299); assay: MTS in vitro cytotoxicity, 96 h continuous exposure
Experimental: (§5) To generate a resistant population to either ADCT-301 or SG3199, human anaplastic large cell lymphoma Karpas-299 cells (expressing CD25) were incubated with an approximate IC50 dose of the drug for 96 hours. The cells were then washed and returned to fresh medium until normal cell growth was recovered. This process was repeated until a measurable and stable loss in cytotoxic efficacy was established using the MTS assay.
(§6) To measure the in vitro cytotoxicity with the MTS assay, cells were incubated with a 10-fold dilution range of ADCT-301 or SG3199, and incubated with continuous exposure for 96 hours (at least three cell doubling times under normal cell culture conditions). After incubation the […] AQueous One Solution Cell Proliferation Assay (MTS) was used to measure growth inhibition, by adding 20 μl reagent to the cells and incubating for 3-4 hours, then reading the absorbance at 492 nm. Mean % growth of the ADC or PBD treated cells was calculated relative to an untreated control.
(§7) To measure the cross-resistance of the Karpas ADCR cells to the SG3199 PBD warhead, and the PBDR cells to ADCT-301, the in vitro cytotoxicity assay was carried out as described above, treating the cells with the opposite drug molecule to the one with which they were generated.
(§8) To measure the cross-resistance of the Karpas ADCR and PBDR cells to the PBD dimer warhead SG2000, the in vitro cytotoxicity (MTS) assay was carried out as previously described in Example 2.

[11] = system: Karpas PBDr cells (SG3199 acquired resistant Karpas-299); assay: as above
Experimental: as §5, §6, §7, §8

With `COc1cc2c(cc1OCCCCCOc1cc3c(cc1OC)C(=O)N1C=C(C)C[C@H]1C=N3)N=C[C@@H]1CC(C)=CN1C2=O` [SG3199] the IC50 (NCI-N87 wt cells [1]) was 0.0159 nM, the “2 hr mean % growth” value (Karpas ADCr cells) was 86.3% and the “2 hr mean % growth” value (Karpas PBDr cells) was 78.5%. The “2 hr mean % growth” value (NCI-N87 ADCr cells [2]) was 57.2%, the “2 hr mean % growth” value (NCI-N87 PBDr cells [3]) was 76.6% and the “2 hr mean % growth” value (Karpas-299 wt cells) was 33.8%. For the same compound, the “% red. OTM” value (NCI-N87 ADCr cells [4]) was 24%, the “% red. OTM” value (NCI-N87 wt cells [5]) was 51.0% and the “% red. OTM” value (NCI-N87 PBDr cells [6]) was 30.7%. The “2 hr mean % growth” value (NCI-N87 wt cells [7]) was 29.0%, the “susceptibility to multidrug resistance mechanisms” value [8] was “susceptible to multidrug resistance mechanisms” and the “fold resistance compared to wildtype” value ([9]; NCI-N87 PBDr vs NCI-N87 wt IC50) was 3.7 fold. For the same compound, the IC50 ([9]; NCI-N87 PBDr, 144 h continuous exposure, mean, read-out: IC50) was 0.0586 nM, the “fold resistance compared to wildtype” value ([10]; Karpas ADCr vs Karpas wt IC50) was 4.4 fold and the IC50 ([10]; read-out: IC50 pM, Karpas ADCr, 96 h continuous exposure, mean) was 306 pM. For the same compound, the “fold resistance compared to wildtype” value ([11]; Karpas PBDr vs Karpas wt IC50) was 2.9 fold and the IC50 ([11]; read-out: IC50 pM, Karpas PBDr, 96 h continuous exposure, mean) was 205 pM.
